# Source: patent US9532569B2 (INSTITUT NATIONAL DE LA RECHERCHE AGRONOMIQUE, priority 2012, dated 2017)
# Assays:
# [1] = tested on: pea rms4 mutant; type: in vivo, Pisum sativum L.
# Procedure: The protocol used is in accordance with that described in example 4 above. Compound concentrations of 100 nM and 3 μM were tested. A negative control consisting of the solvent alone (<<CTL 0>>) was also tested.
# The number of dead buds following the treatment with 3 μM of compound was also determined after 8 days of treatment (on groups of 48 plants).
# [2] = Stability in aqueous medium (UPLC, % nondegraded compound); type: physicochemical; details: second experiment, longer incubation times; 50 μg/ml in methanol/water: 1/4, pH 6.7, 21° C.; FIG. 2
# Procedure: The stability in aqueous medium of the compound (IIa) according to the invention and that of GR24 as comparative compound was evaluated in the following way.
# Each compound was diluted in acetone (1 ml), then 50 μl of each solution were diluted with methanol (175 μl) and water (750 μl) so as to obtain a compound concentration of 50 μg/ml.
# The aqueous solution thus obtained was incubated at 21° C. in HPLC vials.
# Indanol (25 μl of a solution at 1 mg/ml in acetone) was added to each solution in order to serve as an internal standard.
# The degradation of each compound over time was monitored by analysis of samples taken from the solution at various time intervals, by Ultra Performance Liquid Chromatograpy (UPLC) by means of an Acquity UPLC HSS C18 column (1.8 μm, 2.1×50 mm), eluted first of all with a solution of acetonitrile at 5% in water containing 0.1% of formic acid, for 0.5 min, then with a gradient of 5% to 100% of acetonitrile in water containing 0.1% of formic acid, for 6.5 min, and with 100% of acetonitrile containing 0.1% of formic acid for 3 min. The column was maintained at a temperature of 40° C., with a flow of 0.6 ml/min.
# The compounds eluted from the column were detected with a photodiode array detector.
# The relative amount of nondegraded compound in the solution was determined by comparison with the internal standard.
# In a second experiment, the stability in aqueous medium of the compounds (IIa) and (IIIb) according to the invention, and that of GR24 as comparative compound, was evaluated according to the protocol described above.
# [3] = tested on: Striga hermonthica; experiment: Germinative activity on parasitic plants; type: in vivo; details: counted after 4 days, 30° C.
# Procedure: (§1) In this example, the germinative activity of the compounds in accordance with the invention (IIa) and (IIIb) and of the comparative compound GR24 was evaluated on the parasitic plants: Orobanche cumana, Orobanche minor, Striga hermonthica, Phelipanche ramosa (pv T and pv C).
# (§2) The test protocol used was the following.
# Seeds of Striga hermonthica (Del.) Benth were collected at Gadarif, Eastern Sudan, in 1999.
# (§3) The seeds are stored dry in the dark at 25° C.
# (§4) The compounds to be studied were resuspended in acetone at 10 mmol·l^−1, then diluted with water to 1 mmol·l^−1 (water/acetone; v/v; 99/1). Dilutions of 1×10^−3 mol·l^−1 to 1×10^−15 mol·l^−1 were then prepared in a water/acetone mixture (v/v; 99/1). Seeds of parasitic plants were surface-sterilized according to the protocol described in the publication by Vieira Dos Santos et al. (2003), then resuspended in sterile water (10 g·l^−1) and distributed on a 96-well plate (in a proportion of 50 μl, i.e. approximately 100 seeds per well). After preconditioning (7 days, 21° C., in the dark, plate hermetically sealed, except for the seeds of S. hermonthica, which were preconditioned at 30° C.), the compounds to be studied were added and the volumes adjusted to 100 μl with water (water/acetone; v/v; 999/1).
# In a plate, a range of concentrations from 10^−13 mol·l^−1 to 10^−6 mol·l^−1 was applied for GR24 and (IIa) and from 10^−12 to 10^−5 mol·l^−1 for (IIIb). Controls were carried out with a water/acetone mixture (v/v; 999/1) and without seeds. The plates were incubated so as to allow germination (21° C., in the dark or 30° C. for Striga hermonthica.). After 4 days, the seeds which had germinated were counted under a stereomicroscope (SZX10, Olympus). […] For each compound tested, dose-response curves (g=f(c), where g is the germination percentage and c the concentration (mol·l^−1)), and the EC50 (median effective concentration) were modeled on the basis of a 4-parameter logistic curve calculated with SigmaPlot® 10.0.
# (§5) The percentages of maximum germination induced by the compounds tested for each parasitic plant were determined.
# [4] = tested on: Phelipanche ramosa pv T; experiment: Germinative activity on parasitic plants; type: in vivo; details: counted after 4 days
# Procedure: as §1, §2
# (§6) Two populations of Phelipanche ramosa were used in this study, pathovar (pv) C and T, described in the publication by Benharrat et al. (2005). Seeds of Phelipanche ramosa pathovar C were collected at Saint Martin de Fraigneau, France, on broomrapes parasitizing winter oilseed rape (Brassica napus L.) in 2005 and seeds of Phelipanche ramosa pathovar T were collected in Sarthe, France, on broomrapes developing on hemp (Cannabis sativa L.) in 2007.
# as §3, §4
# (§7) In a plate, a range of concentrations from 10^−13 mol·l^−1 to 10^−6 mol·l^−1 was applied for GR24 and (IIa) and from 10^−12 to 10^−5 mol·l^−1 for (IIIb). Controls were carried out with a water/acetone mixture (v/v; 999/1) and without seeds. The plates were incubated so as to allow germination (21° C., in the dark or 30° C. for Striga hermonthica.). After 4 days, the seeds which had germinated were counted under a stereomicroscope (SZX10, Olympus). The seeds were considered to have germinated when the radicle was sticking out of the seed tegument. Each germination test was repeated at least 3 times. For each compound tested, dose-response curves (g=f(c), where g is the germination percentage and c the concentration (mol·l^−1)), and the EC50 (median effective concentration) were modeled on the basis of a 4-parameter logistic curve calculated with SigmaPlot® 10.0.
# as §5
# [5] = tested on: Phelipanche ramosa pv C; experiment: Germinative activity on parasitic plants; type: in vivo; details: counted after 4 days
# Procedure: as §1, §2, §6, §3, §4, §7, §5
# [6] = tested on: Orobanche minor; experiment: Germinative activity on parasitic plants; type: in vivo; details: counted after 4 days
# Procedure: as §1, §2
# (§8) Seeds of Orobanche cumana Wallr. were collected from broomrapes parasitizing sunflower (Helianthus annuus L.), at Longeville-sur-mer, France, in 2009; seeds of clover broomrape (Orobanche minor Sm.) from a parasite of red clover (Trifolium pratense L.) were obtained from Professor K. Yoneyama (Utsunomiya University, Japan).
# as §3, §4, §7, §5
# [7] = tested on: Orobanche cumana; experiment: Germinative activity on parasitic plants; type: in vivo; details: counted after 4 days
# Procedure: as §1, §2, §8, §3, §4, §7, §5
smiles,measurement,setting,value
COC(=O)/C=C/C(C)=C/OC1OC(=O)C(C)=C1C (centres unmarked) [Compound (IIIb)],length of bud/branch at node 3 (toxicity),"[1]; 100 nM and 3 μM, 8 days after treatment at node 3, FIG. 15","absence of effects of the compounds in accordance with the invention (IIa) and (IIIb) compared with a negative control, and between the two treatment doses"
same,number of dead buds after treatment,"[1]; 3 μM, 8 days of treatment, groups of 48 plants, FIG. 16",did not cause the death of any bud
same,chemical stability in aqueous solution (% of nondegraded compound as a function of incubation time),[2],even better than that of the compound (IIa)
same,Percentage of maximum germination induced,[3],no (no significant germination compared to the negative control (<2%))
same,Percentage of maximum germination induced,[4],88 ± 6%
same,Percentage of maximum germination induced,[5],no (no significant germination compared to the negative control (<2%))
same,Percentage of maximum germination induced,[6],60 ± 6%
same,Percentage of maximum germination induced,[7],no (no significant germination compared to the negative control (<2%))
